Inhibition data for ten compounds are collected here from ChEMBL document CHEMBL4043258, “Polycyclic polyprenylated acylphloroglucinol derivatives from Hypericum scabrum” (2017).

One may read the inhibition as the change of the read-out against control, counted positive when it falls.

For the test, the system named is HepG2. The test is described as follows: Hepatoprotective activity in human HepG2 cells assessed as inhibition of paracetamol-induced reduction in cell viability at 10 uM pretreated for 1 hr followed by paracetamol addition after 24 hrs by MTT assay relative to control. It is filed as functional. For orientation: Formazan colour is commonly taken as a measure of viable cells.

Take `CC[C@H](C)C(=O)[C@]12C(=O)[C@](C)(C[C@H](CC=C(C)C)[C@@]1(C)CCC=C(C)C)C(=O)C1=C2O[C@H](C(C)(C)O)C1`: the inhibition at 10 µM stood at 15%.
With `CC(C)=CC[C@H]1C[C@@H](CC=C(C)C)C(C)(C)C(C(=O)c2ccccc2)C1=O` (single isomer, unassigned), the inhibition at 10 µM is 45%.
Regarding `COC(=O)c1cc(OC)c2c(c1-c1c(CO)cc(OC)c3c1OCO3)OCO2` [BICYCLOL], the inhibition at 10 µM was determined as 28.3%.
For the compound `CC(C)=CC[C@H]1C[C@@]23C[C@H](C(C)(C)O)OC2=C(C(=O)c2ccccc2)C(=O)[C@](C(=O)c2ccccc2)(C3=O)C1(C)C`, the inhibition at 10 µM was 13.4%.
In the case of `CC(=O)CC1C2CC3(CC=C(C)C)C(=O)C1(C(=O)c1ccccc1)C(=O)C(CC=C(C)C)(C3=O)C2(C)C` (stereo not given) it was 13.9%.
Turning to `CC(C)=CC[C@H]1C[C@]2(CC=C(C)C)C(=O)C3=C(O[C@H](C(C)(C)O)C3)[C@@](C(=O)c3ccccc3)(C2=O)C1(C)C`, the inhibition at 10 µM was 19.5%.
With `CC(C)=CC[C@@H]1C[C@@]2(CC=C(C)C)C(=O)[C@](C(=O)c3ccccc3)(C(=O)C3=C2O[C@H](C(C)(C)O)C3)C1(C)C` the figure was 24.5%.
For the compound `CC(C)=CCC1=C2O[C@@H](C(C)(C)O)C[C@@]23C[C@@H](CC=C(C)C)C(C)(C)[C@@](C(=O)c2ccccc2)(C1=O)C3=O`, the inhibition at 10 µM is -9.68%.
In the case of `COC(=O)[C@]1(CC=C(C)C)C[C@@H](CC=C(C)C)C(C)(C)[C@@H](C(=O)c2ccccc2)C1=O` it was 32.3%; in that of `CC(C)=CC[C@H]1C[C@@]2(CC=C(C)C)C(=O)C3=C(O[C@H](C(C)(C)O)C3)[C@](C(=O)c3ccccc3)(C2=O)C1(C)C`, 40.4%.
